The numbers were not newly measured in article PMC5594551, “Heterogeneous drug penetrance of veliparib and carboplatin measured in triple negative breast tumors” (Breast Cancer Research : BCR, 2017), which cites them from elsewhere.

One data set concerns HCC70. The note with it: ref [24]; cited from earlier work.
For a further data set, the system named is MDA-MB-436. Conditions: MDA-MB-436, BRCA1-mutated; ref [24]; cited from earlier work.

Consider `O=C(c1cc(Cc2n[nH]c(=O)c3ccccc23)ccc1F)N1CCN(C(=O)C2CC2)CC1` [olaparib], for which the Sensitivity in vitro entry with HCC70 is “sensitive”; in the data set with MDA-MB-436, “sensitivity”.
